According to patent US20080220056A1, “Treatment for liver disease” (UNIVERSITY OF SOUTHAMPTON, priority 2002, published 2008):

What was measured:
[1] = system: caspase 3 activity in rat hepatic stellate cells; test: Caspase 3 (Ac-DEVD-pNA cleavage) activity in rat hepatic stellate cells; assay type: cell-based; conditions: 1.5 μmol/L, three hours, versus DMSO control
Method: Hepatic stellate cells cultured in 100 mm diameter dishes (Greiner, Frickenhausen, Germany) were harvested and pelleted by centrifugation. The medium supernatant was discarded and the cell pellet was washed in 1 mL of ice-cooled phosphate buffered saline (PBS). Caspase 3 (DEVDase) activity was determined using a colorimetric CaspACE kit (Promega, Southampton, England) using the manufacturer's instructions.
Caspase 3 (Ac-DEVD-pNA cleavage) activity was then examined in control and gliotoxin-treated hepatic stellate cells. Culture activated rat hepatic stellate cells (14 days) in 100 mm diameter plates were treated with 0.05% (vol/vol) DMSO, 1.5 μmol/L gliotoxin, 20 μmol/L Z-VAD-FMK or 200 μmol/L chlorpromazine for three hours. The cells were then harvested for examination of caspase 3 activity as outlined in the materials and methods sections.

[2] = system: rat hepatic stellate cells; test: Trypan blue exclusion of treated rat hepatic stellate cells; assay type: cell-based; conditions: rat HSC; 1.5 μmol/L gliotoxin or 200 μmol/L chlorpromazine
[3] = system: rat hepatic stellate cells; test: Low molecular weight DNA fragmentation (nucleosomal ladder) in rat hepatic stellate cells; assay type: cell-based; conditions: 37.5 μmol/L gliotoxin
[4] = Pilot study for gliotoxin toxicity in rats; assay type: in vivo, rat; conditions: 3 mg/kg body weight
[5] = system: caspase-3 activity in hepatic stellate cells; test: Caspase-3 activity in cycloheximide-treated hepatic stellate cells; assay type: cell-based; conditions: 50 μM cycloheximide
Method: Apoptosis was quantified by a colorimetric assay for caspase-3 activity (Promega) according to the manufacturer's instructions.
Caspase-3 is a central caspase in the proapoptotic cascade (Hengartner, Nature (2000) 407, 770-776) and can be used as an alternative assay to assess apoptosis. Hepatic stellate cells were cultured in 50 μM cycloheximide with TIMP-1 at a concentration of 0, 1, 10, or 100 ng/ml. Controls where cells were incubated with either the caspase 3 inhibitor benzyloxycarbonyl-Val-Ala-Asp-fluoromethylketone or serum alone were also performed. Data are expressed as mean ±S.E. and are presented as percentage of control given the arbitrary value of 100%. * indicates p<0.001; n=3. […] Although the mean caspase-3 activity of the cells treated with 10 ng/ml TIMP-1 was slightly lower than that treated with 100 ng/ml of TIMP-1, this was not statistically significant (p=0.67 by Student's t test).

[6] = system: Fas and Fas ligand in human hepatic stellate cells; test: Enzyme-linked immunosorbent assay for Fas and Fas ligand; assay type: cell-based; conditions: TIMP-1 142.5 ng/ml, 18 hours, serum deprivation, versus BSA alone
Method: Human hepatic stellate cells were grown to confluence and exposed to BSA with and without TIMP-1. Cells and supernatants were harvested, and protein extracts were assayed for Fas and Fas ligand by commercial enzyme-linked immunosorbent assay following the manufacturer's instructions (Calbiochem). The quantities of Fas and Fas ligand were normalized to cell number by DNA quantification using the PicoGreen technique.
Experiments were next performed to determine whether TIMP-1 regulated Fas ligand cleavage in human hepatic stellate cells. Hepatic stellate cells were incubated for 18 hours in conditions of absolute serum deprivation with BSA or BSA with TIMP-1 (142.5 ng/ml). The cells were extracted, and supernatants were collected. After normalizing for cell number (by DNA concentration using the PicoGreen technique), these extracts were analyzed by enzyme-linked immunosorbent assay for Fas and Fas ligand as described under Materials and Methods. […] Supernatant Fas and Fas ligand protein levels were undetectable in all experimental conditions (data not shown, n 3).

[7] = system: hepatic stellate cells; test: Nerve growth factor induced apoptosis of hepatic stellate cells; assay type: cell-based; conditions: NGF 100 ng/ml, serum-free; TIMP-1 142.5 ng/ml
Method: Apoptosis of hepatic stellate cells was induced by absolute serum deprivation, cycloheximide treatment (Issa et al., Gut (2001) 48: S48-S57), or exposure to nerve growth factor as previously described (Trim et al., Am. J. Pathol., (2000) 156, 1235-1243). Hepatic stellate cells were cultured in 24-well tissue culture plates. Rat and human hepatic stellate cells were exposed to proapoptotic stimuli with and without recombinant TIMP-1 (Biogenesis, Poole, UK) and other manipulations as detailed below. Following a 4 hour incubation at 37° C., nuclear morphology was assessed by adding acridine orange to each well (final concentration 1 μg/ml) and observing the cells under blue fluorescence. The total number of apoptotic bodies was counted, and any apoptotic bodies floating in the supernatant were included by racking up the objective lens. The total number of cells per field was counted, and an apoptotic index was calculated. Each condition was performed in duplicate, and three high power fields were counted for each well. […] To examine for autocrine effects, hepatic stellate cells were incubated for 18 hours with azide-free polyclonal neutralizing antibodies to TIMP-1 and a nonimmune IgG control (Santa Cruz Biotechnology, Inc., Santa Cruz, Calif.), and responses were assessed by acridine orange staining and counting. […]

[8] = system: human hepatic stellate cells; test: Hepatic stellate cell apoptosis by acridine orange staining and counting (cycloheximide or serum deprivation), human cells; assay type: cell-based; conditions: human hepatic stellate cells
Method: Human hepatic stellate cells were extracted from the margins of normal human liver resected for colonic metastatic disease as previously described (Iredale et al., Clin. Sci., (1995) 89: 75-81). Rat hepatic stellate cells were extracted from normal rat liver by Pronase and collagenase digestion and purified by centrifugal elutriation as described (Arthur et al., J. Clin. Invest., (1989) 84:1076-1085). Extracted hepatic stellate cells were cultured on plastic until they were activated to a myofibroblastic phenotype after 7 to 10 days. Human and rat hepatic stellate cells were used for experiments after activation in primary culture or before fourth passage. Cells were cultured in Dulbecco's modified Eagle's medium in the presence of 16% fetal calf serum and antibiotics.
Apoptosis of hepatic stellate cells was induced by absolute serum deprivation, cycloheximide treatment (Issa et al., Gut (2001) 48: S48-S57), or exposure to nerve growth factor as previously described (Trim et al., Am. J. Pathol., (2000) 156, 1235-1243). Hepatic stellate cells were cultured in 24-well tissue culture plates. […] Following a 4 hour incubation at 37° C., nuclear morphology was assessed by adding acridine orange to each well (final concentration 1 μg/ml) and observing the cells under blue fluorescence. The total number of apoptotic bodies was counted, and any apoptotic bodies floating in the supernatant were included by racking up the objective lens. The total number of cells per field was counted, and an apoptotic index was calculated. Each condition was performed in duplicate, and three high power fields were counted for each well. […] To examine for autocrine effects, hepatic stellate cells were incubated for 18 hours with azide-free polyclonal neutralizing antibodies to TIMP-1 and a nonimmune IgG control (Santa Cruz Biotechnology, Inc., Santa Cruz, Calif.), and responses were assessed by acridine orange staining and counting.
Apoptosis was assessed by acridine orange staining. […]

Question: With `CN1C(=O)[C@]23CC4=CC=C[C@H](O)[C@H]4N2C(=O)[C@@]1(CO)SS3` [gliotoxin] as the compound, how does the “increase in caspase 3 activity” value [1] read?
Answer: 7.6 fold

Question: And the “0.1% (wt/vol) trypan blue exclusion (membrane integrity)” value [2]?
Answer: detached cells that excluded 0.1% (wt/vol) trypan blue

Question: What about the “level of DNA cleavage at high concentration versus lower concentrations” value [3] of the same compound?
Answer: reduction in the level of DNA cleavage detected

Question: And the apparent ill effects [4]?
Answer: did not cause any apparent ill effects in rats

Question: And the “hepatic damage on histologic sections of the liver” value [4]?
Answer: no evidence of hepatic damage

Question: For “TIMP-1: recombinant tissue inhibitor of matrix metalloproteases 1 (Biogenesis)”, which “reduction in caspase-3 activity” value ([5]; TIMP-1 10 ng/ml) is on record?
Answer: 50%

Question: What about the “reduction in apoptosis measured by caspase-3 activity” value ([5]; TIMP-1 100 ng/ml) of the same compound?
Answer: 50%

Question: And the caspase-3 activity ([5]; TIMP-1 1-100 ng/ml)?
Answer: dose-dependent reduction in caspase-3 activity

Question: What about the “cellular Fas or Fas ligand protein levels” value [6] of the same compound?
Answer: had no effect on cellular Fas or Fas ligand protein levels

Question: What about the “apoptosis induced by exposure to NGF” value [7] of the same compound?
Answer: significantly inhibited

Question: What about the “apoptosis of human HSC (cycloheximide 4 h or serum deprivation 18 h)” value [8] of the same compound?
Answer: identical antiapoptotic effects
